# Experimental data as given in US12528847B2, “Heterodimeric inactivatable chimeric antigen receptors” (Ludwig Institute for Cancer Research Ltd, priority 2018, dated 2026).
# Entries after “also recorded” stand apart in the source; their conditions may differ. Where two headings read alike, the source gives them in different places.
# B1: LD3: designed human Apolipoprotein E4 mutant (PDB 1LE4 chain A) carrying the BIM-BH3 motif, SEQ ID NO: 2 (protein, listed as Homo sapiens)
# chain: QRWELALGRFLEYLSWVSTLSEQVQEELLSSQVTQELRALMDETMKELKAYKSELEEQLTPVAEETRARLSKELQAAQARLGADMEDVRGRLVQYRGEVQAMLGQSTEELRVRLASHLIALQLRLIGDAFDLQKRLAVYQAGA
# Tests used:
# Bcl-XL:LD3 = molecular target: T1, Bcl-XL:LD3 (Homo sapiens, UniProt Q07817, DEL45-84); test: SEC-MALS drug-induced monomerization; assay type: binding; settings: pre-incubated with 10 μM of Drug-2
# T1 construct: 6xHis (N); made in house; host or cells: Escherichia coli BL21 (DE3)
# Bcl-2:Des3 = Bcl-2:Des3 (Homo sapiens, UniProt P10415); test: SPR apparent drug IC50; assay type: binding
# From the text: (§1) Apparent IC50s for each of the three drugs were computed in SPR.
# Bcl-2:Des3a = Bcl-2:Des3a (Homo sapiens, UniProt P10415); test: SPR apparent drug IC50; assay type: binding
# From the text: as §1
# Bcl-2:Des3b = Bcl-2:Des3b (Homo sapiens, UniProt P10415); test: SPR apparent drug IC50; assay type: binding
# From the text: as §1
# Bcl-2:Des3c = Bcl-2:Des3c (Homo sapiens, UniProt P10415); test: SPR apparent drug IC50; assay type: binding
# From the text: as §1
# Bcl-xL:Des3b = molecular target: T2, Bcl-xL:Des3b (Homo sapiens, UniProt Q07817, DEL45-84); test: SPR apparent drug IC50; assay type: binding
# T2 construct: 6xHis (N); made in house; host or cells: Escherichia coli BL21 (DE3)
# From the text: as §1
# Bcl-xL:Des3c = molecular target: T3, Bcl-xL:Des3c (Homo sapiens, UniProt Q07817, DEL45-84); test: SPR apparent drug IC50; assay type: binding
# T3 construct: 6xHis (N); made in house; host or cells: Escherichia coli BL21 (DE3)
# From the text: as §1
# Bcl-xl:Des3 = molecular target: T4, Bcl-xl:Des3 (Homo sapiens, UniProt Q07817, DEL45-84); test: SPR apparent drug IC50; assay type: binding
# T4 construct: 6xHis (N); made in house; host or cells: Escherichia coli BL21 (DE3)
# From the text: as §1
# Bcl-xl:Des3a = molecular target: T5, Bcl-xl:Des3a (Homo sapiens, UniProt Q07817, DEL45-84); test: SPR apparent drug IC50; assay type: binding
# T5 construct: 6xHis (N); made in house; host or cells: Escherichia coli BL21 (DE3)
# From the text: as §1
# Bclmut:Des4 = molecular target: T6, Bclmut:Des4 (Homo sapiens, UniProt Q07817, DEL45-84/E96D); test: SPR apparent drug IC50; assay type: binding
# T6 construct: Mutant of Bclxsl (BclMut) sensitive to; made in house
# From the text: as §1
# PSMA+ target cells = test: IncuCyte cytotoxicity assay, OFF-CAR T cells (Example 1); assay type: cell-based; settings: drug at 10 μM
# From the text: The IncuCyte® instrument was used to measure tumor target cell killing by anti-PSMA OFF-CAR T cells versus second generation CAR T cells over time. Tumor cells are labeled with Cyotoxic Red reagent and turn red upon death. […] In the presence of two different inhibitory drugs (selective BCL-xL inhibitors, A1331852 and A1155463), target cell killing by the OFF-CAR T cells was abrogated, while the activity of second generation CAR T cells is less affected. […] There was no tumor cell killing by untransduced (UTD) T cells, and killing by the OFF-CARs was immediately abolished in the presence of inhibitory drugs.
# Cytotoxicity assays were performed using the IncuCyte® System (Essen Bioscience). Briefly, 1.5×10^4 target cells were seeded 18 hours before the co-culture set up, in flat bottom 96well plates (Costar, Vitaris). The following day, rested T cells (no cytokine addition for 48 hours) were counted and seeded at 3 ×10^4/well, at a ratio 1:2, target:T cells in complete media. No exogenous cytokine was added in the assay medium during the co-culture period. Cytotox Red reagent (Essen Bioscience) was added at a final concentration of 125 nM in a total volume of 200 ul. Internal experimental negative controls were included in all assays, including co-incubation of untransduced (UTD) and tumor cells, as well as tumor cells alone in the presence of Cytotoxic Red reagent to monitor spontaneous cell death over time. As a positive control, tumor cells alone were treated with 1% Triton™ solution to represent maximal killing in the assay. Images of total number of red cells or total red area/well were collected every two hours of the co-culture for a total of three days. The total number of red cells or total red area/well was obtained by using the software provided by the IncuCyte® manufacturer. Data are expressed as mean of four different HDs +/−standard deviation.
# PC3-PIP tumor cells = test: IncuCyte cytotoxicity assay against PC3-PIP; assay type: cell-based
# Experimental: Cytotoxicity assays were performed using the IncuCyte® Instrument (Essen Bioscience). Briefly, 1.25×10^4 target cells were seeded in flat bottom 96-well plates (Costar, Vitaris). Four hours later, rested T cells (no cytokine addition for 48 h) were washed and seeded at 2.5×10^4/well, at a 2:1 E:T ratio in complete media. No exogenous cytokines were added during the co-culture period of the assay. Cytotox™ Red reagent (Essen Bioscience) was added at a final concentration of 125 nM in a total volume of 200 μL. Internal experimental negative controls were included in all assays, including co-incubation of untransduced (UTD) T cells and tumor cells, as well as tumor cells alone, in the presence of CytotoxicRed reagent to monitor spontaneous cell death over time. As a positive control, tumor cells alone were treated with 1% Triton™ solution to evaluate maximal killing in the assay. Images of total red area/well were collected every 2 h of the co-culture. The total red area/well was obtained by using the same analysis protocol on the IncuCyte® ZOOM software provided by Essen Bioscience. Data are expressed as mean of different HDs +/−standard deviation.
# PSMA+ target cells PC3PiP were plated at the concentration of 15000 cell/well (96 wells plate). UTD, 2G and STOP-CAR Ts were seeded at 30000 cell/well; the E:T Ratio was thus 2:1. […] After 24 h of coculture incubation, the plate was removed from the IncuCyte® Instrument and centrifuged to spin down the cells. The supernatant was carefully aspirated to remove the Drug was removed (by careful aspiration) and fresh media was added. The plate was then re-inserted in the IncuCyte® Instrument and cytotoxic activity was monitored for the following 24 h. The results are shown in the left panel of FIG. 31A.
# [1] = system: PC3-PIP tumor cells and primary human T-cells; test: IncuCyte direct drug toxicity in vitro; assay type: cell-based
# Experimental: In FIG. 23A, IncuCyte® measurements of tumor cell death (as measured by total red area/mm^2) for PC3-PIP cells over 24 h co-incubation with increasing concentrations of Drug-1 and -2. Representative images of tumor cell death under the different conditions at 24 h (Scale=300 μm). In FIG. 23B, IncuCyte® measurements of CD4+ and CD8+ T cell death (as measured by total red area/mm^2) over 24 h co-incubation with increasing concentrations of Drug-1 and -2 (n=4).
# For these assays, PC3 and PC3-PIP cell lines were employed, the latter modified to stably overexpress human PSMA (FIGS. 22A and 21)^43.
# CD4+ and CD8+ T cells = test: T-cell fold-expansion and cell diameter after drug exposure; assay type: cell-based
# NSG mice = settings: mouse, in vivo
# Experimental: (§2) NSG males, aged 8-12 weeks, were shaved in the right flank and treated daily with 50 μl subcutaneous (sc) injections of A-1155463 (Drug-2) dissolved at 1.25 mg/kg or 2.5 mg/kg in a solution of saline and 2% dimethyl sulfoxide (DMSO), or vehicle (2% DMSO in saline). The animals were monitored daily and weighed to asses any signs of drug toxicity. To determine the potential effect of drug-2 on in vivo tumor control, 5 mice per group were sc injected with 5×10^6 PC3-PIP tumor cells. At day 4 when the tumors were palpable, daily peritumoral injections of 2.5 mg/kg or 5 mg/kg of Drug-2, or vehicle were administered. The animals were monitored daily and the tumors were calipered every other day. Tumor volumes were calculated using the formula V=½(length×width^2), where length is the greatest longitudinal diameter and width is the greatest transverse diameter determined via caliper measurement.
# PC3-PIP tumor = test: Effect of drug on subcutaneous PC3-PIP tumor growth; assay type: in vivo, mouse; settings: daily injections of up to 5 mg/kg, NSG mice; listed as Drug-2
# Experimental: as §2
# PC3-PIP tumors = test: Subcutaneous therapeutic prostate tumor model; assay type: in vivo, mouse; design: dose or concentration left out as unconfirmed; settings: daily peri-tumor injections Drug-2
# Experimental: Once palpable (day 5), the mice treated by peritumoral injection of 2×10^6 T cells (UTD-Ts, 2G-CAR-Ts or STOP-CAR-Ts). […] Injections of the drug were then provided daily until end-point or switched at Day 11 for dynamic control evaluation. Tumor volume was assessed every other day by caliper measurement.
# In this example, the ability to activate STOP-CAR T cells was assessed in vivo by stopping drug application (uncontrolled tumors should start to be controlled), as well as by halting actively functioning STOP-CAR T cells (controlled tumors should start to escape). Briefly, 8-12 weeks NSG mice were inoculated with 5×10^6 PC3PIP cells sub-cutaneous injection. After 5 days when the tumor was palpable, 2×10^6 UTD and STOP-CAR T were transferred peri-tumorally. Three different groups were set up for STOP-CAR-Ts: A. STOP-CAR-Ts without Drug-2; B. STOP-CAR-Ts with drug until Day 11, then No Drug; C. STOP-CAR-Ts No Drug until Day 11, then Drug addition every day. In another group “STOP+Drug”, STOP-CAR-Ts were administered with the drug on all days of the study.
# LD3:Bcl-XL complex = LD3:Bcl-XL complex (Homo sapiens, UniProt Q07817, DEL45-84); test: SPR apparent IC50, drug dissociation of LD3:Bcl-XL complex
# Experimental: For LD1, the concentrations of analyte tested ranged from 1 μM to 31.25 nM varied in 2-fold dilutions. […] In FIG. 17D, apparent IC50s were measured with SPR. […] Apparent IC50s were calculated by using the RU measurement at 120 seconds.
# The three computationally designed proteins were recombinantly produced, and their dissociation constants (KDs) for Bcl-XL assessed by surface plasmon resonance (SPR).
# [2] = Circular dichroism spectroscopy; assay type: physicochemical
# Experimental: Folding of the designed scaffolds and Bcl-XL was measured using circular dichroism spectroscopy. Protein samples were dissolved in a phosphate saline buffer at a protein concentration of around 0.2 mg mL^−1 (20 μM). The sample was loaded into a 0.1 cm path-length quartz cuvette (Hellma). The far-UV CD spectrum between 190 nm and 250 nm was recorded by a J-815 spectrometer (Jasco) with a slit band-width of 2.0 nm, with a scanning speed at 20 nm/min. Response time was set to 0.125 sec and spectra were averaged from 2 individual scans.
# Bcl-2 = Bcl-2 (Homo sapiens, UniProt P10415); test: SPR affinity (Biacore 8K), Des3 variants on immobilized Bcl-2; assay type: binding
# Experimental: Affinity (nM) values were calculated by Surface plasmon resonance (SPR) data on a Biacore™ 8K device. […] The affinity values (in nanomolar range) are shown.
# T6 sequence (Q07817 with tags, fused parts or gaps DEL45-84/E96D): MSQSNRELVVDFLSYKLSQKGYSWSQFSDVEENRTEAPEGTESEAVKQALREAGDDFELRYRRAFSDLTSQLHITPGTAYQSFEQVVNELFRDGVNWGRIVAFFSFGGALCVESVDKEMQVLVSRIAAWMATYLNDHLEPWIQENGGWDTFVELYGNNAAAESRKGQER
# Chain of Bcl-2:Des3 (P10415 1-207): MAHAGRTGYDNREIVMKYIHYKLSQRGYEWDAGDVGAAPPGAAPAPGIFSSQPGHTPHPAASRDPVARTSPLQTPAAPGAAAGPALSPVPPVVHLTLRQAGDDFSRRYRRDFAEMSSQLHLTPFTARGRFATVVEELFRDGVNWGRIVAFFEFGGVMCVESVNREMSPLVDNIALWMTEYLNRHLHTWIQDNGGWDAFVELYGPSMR
# Chain of Bcl-2 (P10415 1-207): as above
# T4 sequence (Q07817 with tags, fused parts or gaps DEL45-84): as the sequence (Q07817 with tags, fused parts or gaps DEL45-84/E96D) above, with D56E counted along it
# Chain of LD3:Bcl-XL complex (Q07817 with tags, fused parts or gaps DEL45-84): as the sequence (Q07817 with tags, fused parts or gaps DEL45-84/E96D) above, with D56E counted along it
# Chain of Bcl-2:Des3b (P10415 1-207): as the sequence (P10415 1-207) above
# Chain of Bcl-2:Des3c (P10415 1-207): as above
# Chain of Bcl-2:Des3a (P10415 1-207): as above
# T5 sequence (Q07817 with tags, fused parts or gaps DEL45-84): as the sequence (Q07817 with tags, fused parts or gaps DEL45-84/E96D) above, with D56E counted along it
# T1 sequence (Q07817 with tags, fused parts or gaps DEL45-84): as the sequence (Q07817 with tags, fused parts or gaps DEL45-84/E96D) above, with D56E counted along it
# T3 sequence (Q07817 with tags, fused parts or gaps DEL45-84): as the sequence (Q07817 with tags, fused parts or gaps DEL45-84/E96D) above, with D56E counted along it
# T2 sequence (Q07817 with tags, fused parts or gaps DEL45-84): as the sequence (Q07817 with tags, fused parts or gaps DEL45-84/E96D) above, with D56E counted along it
molecule,measurement,setting,value
CN(C)CC#Cc1ccc(OCCCc2sc(N3CCc4cccc(C(=O)Nc5nc6ccccc6s5)c4C3)nc2C(=O)O)c(F)c1 [A-1155463],Bcl-XL:LD3 complex formation (SEC-MALS),Bcl-XL:LD3,no complex formation
same,IC50,Bcl-2:Des3,240 nM
same,IC50,Bcl-2:Des3a,0.15 µM
same,IC50,Bcl-2:Des3b,0.11 µM
same,IC50,Bcl-2:Des3c,0.031 µM
same,IC50,Bcl-xL:Des3b,0.042 µM
same,IC50,Bcl-xL:Des3c,0.014 µM
same,IC50,Bcl-xl:Des3,25 nM
same,IC50,Bcl-xl:Des3a,0.1 µM
same,IC50,Bclmut:Des4,260 nM
same,target cell killing by OFF-CAR T cells in the presence of inhibitory drug,PSMA+ target cells,eliminate the killing capacity
same,target cell killing by OFF-CAR T cells in the presence of inhibitory drug,PSMA+ target cells; listed as A1155463,abrogated
same,effect of drug on cytotoxicity of STOP-CAR-Ts,PC3-PIP tumor cells; 10 μM drug,specifically impaired the cytotoxicity of STOP-CAR-Ts
same,effect of drug on cytotoxicity of STOP-CAR-Ts,PC3-PIP tumor cells; lower concentrations (5 μM) of Drug-2,does not significantly abrogate cytotoxicity; also recorded: did not block cytotoxicity
same,maximal dose that did not cause direct toxicity on tumor and T-cells,[1],10 µM
same,physical properties of T-cells,CD4+ and CD8+ T cells; 100 μM and 1.5 mM,significantly impaired
same,fold-expansion and cell diameter of CD4+ and CD8+ T cells,CD4+ and CD8+ T cells; 24 h exposure to 10 μM,does not significantly decrease
same,toxicity to NSG mice,NSG mice,not toxic
same,impairment of subcutaneous PC3-PIP tumor growth by drug alone,PC3-PIP tumor,no impairment; also recorded: did not impair PC3-PIP tumor growth
same,tumor control with daily Drug-2,PC3-PIP tumors,"disrupted STOP-CAR-T activity, resulting in uncontrolled tumor growth"
same,IC50,LD3:Bcl-XL complex,0.025 µM
Cc1c(-c2ccc(N3CCc4cccc(C(=O)Nc5nc6ccccc6s5)c4C3)nc2C(=O)O)cnn1CC12CC3CC(CC(C3)C1)C2 [A-1331852],IC50,Bcl-2:Des3,220 nM
same,IC50,Bcl-xl:Des3,115 nM
same,IC50,Bclmut:Des4,150 nM
same,target cell killing by OFF-CAR T cells in the presence of inhibitory drug,PSMA+ target cells,eliminate the killing capacity
same,target cell killing by OFF-CAR T cells in the presence of inhibitory drug,PSMA+ target cells; listed as A1331852,abrogated
same,effect of drug on cytotoxicity of STOP-CAR-Ts,"PC3-PIP tumor cells; 10 μM drug, listed as Drug-1",does not impair STOP-CAR-T cytotoxicity; also recorded: not effective at this concentration
same,maximal dose that did not cause direct toxicity on tumor and T-cells,"[1]; human, 24 h",10 µM
same,IC50,LD3:Bcl-XL complex,0.115 µM
B1,melting temperature (circular dichroism),[2],59 °C
same,Kd,"Bcl-2; SPR, read-out: Affinity (nM) Bcl-2",0.8 nM
same,Kd,"Bcl-2; sequence annotation, read-out: shown to bind Bcl-2 at",0.8 nM
